Reference: patent publication US20090305993A1, “METHODS AND COMPOSITION FOR THE TREATMENT OF GASTROINTESTINAL DISORDERS” (IRONWOOD PHARMACEUTICALS, INC., priority 2006, published 2009)
Where a SMILES comes first, the peptide text is derived from it. Bridges are numbered along the chain shown (N, C = ends).

Tests used:
[1] = oral bioavailability in mice, radioimmunoassay (RIA); conditions: female, CD-1, mouse, in vivo
Procedure: Oral bioavailability was also determined using a radioimmunoassay (RIA) detection method. Female CD-1 mice (Charles River, Wilmington, Mass.) weighing approximately 25 g (7-8 weeks old) or female CD rats (Charles River, Wilmington, Mass.) weighing approximately 153 g were included in this study. Monoclonal antibody, 20C1 (Brandwein et al. 1985 Infect Immun. 47:242-246), which recognizes SEQ ID NO:7 and 1251 labeled—SEQ ID NO:7, a labeled tracer, were used in these experiments. The labeled tracer was purified by HPLC using a Waters C-18u Bondapak® column (25 cm) previously equilibrated with 10 mM ammonium acetate pH 5.8. […] Blood was drawn from all dosed animals by retro-orbital eye bleeding at specific intervals and test compound levels were analyzed by radioimmunoassay (RIA). […] Radioactivity was measured in a LS 6500 scintillation counter (Beckman-Coulter). The binding efficiency is defined as the percent radioactivity in the B0 sample compared to the input counts. The percent bound in each sample was calculated by the equation: […]
A standard curve was prepared by plotting % B/B0 as a function of the log SEQ ID NO:3 concentration. […] The area under the curve from T=0 to 4 hours (AUC0-4h) was calculated by the software for both p.o. and i.v. dosed animals. […] Oral Bioavailability (F) is calculated using the equation: […]

Female CD rats = test: rat model of postoperative ileus; assay type: in vivo; conditions: oral 10 μg/kg, after abdominal surgery, FIG. 16
Procedure: Female CD rats were used to test the effect of SEQ ID NO:3 on delayed transit induced by abdominal surgery and manual manipulation of the small intestine. Groups of at least nine rats underwent abdominal surgery under isoflurane anesthesia. Surgery consisted of laparotomy and 5 minutes of gentle manual intestinal massage. Following recovery from anesthesia, rats were dosed orally with either 10 μg/kg SEQ ID NO:3 or vehicle (20 mM Tris) in a volume of 300 μl. 1 hour after dosing, intestinal transit rate was measured. Animals were again dosed with 300 μl of the test article followed immediately by 500 μl of a charcoal meal (10% charcoal, 10% gum arabic in water). To calculate the distance of the small intestine traveled by the charcoal front, after 20 minutes, the total length of the intestine as well as the distance traveled from the stomach to the charcoal front were measured for each animal. Animals dosed with 10 μg/kg SEQ ID NO:3 experienced an increase in transit following abdominal surgery compared to animals dosed with vehicle alone (FIG. 16). Charcoal transit in SEQ ID NO:3 dosed animals was measured at 37.3+3.0% (mean+SEM) of the small intestine compared with vehicle at 24.7+1.4% (mean+SEM) of the small intestine.

aminopeptidase = aminopeptidase (Sus scrofa, UniProt P15145); conditions: 37° C., up to 24 h
Procedure: The stability of SEQ ID NO:3 in the presence of several mammalian digestive enzymes was determined. SEQ ID NO:3 was exposed to a variety of in vitro conditions including digestive enzymes and low ph environments designed to simulate gastric fluid. SEQ ID NO:3 was incubated with chymotrypsin, trypsin, pepsin, aminopeptidase, carboxypeptidase A, and simulated gastric fluid (sgf) at ph 1.0. Samples were collected at 0, 3, and 24 h for all conditions except pepsin digestion and the SGF. For the latter two conditions, samples were obtained at 0, 1, and 3 h. Negative control samples were prepared for initial and final time points. A separate, positive activity control was run in parallel to SEQ ID NO:3. All samples were analyzed by LC/MS
500 μL samples of 0.01 mg/mL SEQ ID NO:3 and chemically synthesized SEQ ID NO:4 (wild type ST; positive control) were prepared in the aminopeptidase reaction buffer (5 mM Tris-HCl, 5 mM MgCl2, pH 7.5) in 2 mL eppendorf tubes. 5 μL of a 5 mg/mL Bestatin hydrochloride (BioChemika, 08170; an aminopeptidase inhibitor) stock was added to each control sample (0 and 24 h), for a final concentration of 0.05 mg/mL. All control and test samples (0, 3, and 24 h) were incubated at 37° C. for 5 min. […] These standards were used to generate a standard curve for quantification of samples. […]

[2] = tested on: wild-type or GC-C KO mice; conditions: 5 μg into loop, FIG. 17a
Procedure: The effect of SEQ ID NO:3 on cGMP levels and secretion were studied by injecting SEQ ID NO:3 directly into an isolated loop in either wild-type or GC-C KO mice. This was done by surgically ligating a loop in the small intestine of the mouse. […] The loop was roughly centered and was a length of 1-3 cm. The loops were injected with 100 μl of either SEQ ID NO:3 (5 μg) or vehicle (20 mM Tris, pH 7.5 or Krebs Ringer, 10 mM Glucose, HEPES buffer (KRGH)). Following a recovery time of 90 minutes the loops were excised. Weights were recorded for each loop before and after removal of the fluid contained therein. The length of each loop was also recorded. A weight to length ratio (W/L) for each loop was calculated to determine the effects of SEQ ID NO:3 on secretion.
To determine the effect of SEQ ID NO:3 on cGMP activity, fluid from the loop was collected in ice-cold trichloracetic acid (TCA) and stored at −80° C. for use in an assay to measure cGMP levels in the fluid. Intestinal fluid samples were TCA extracted, and cyclic GMP was measured by EIA according to procedures outlined in the Cayman Chemical Cyclic GMP EIA kit (Cayman Chemical, Ann Arbor, Mich.) to determine cyclic GMP levels in the intestinal fluid of the mouse in the presence of either SEQ ID NO:3 or vehicle.

aminopeptidase, sequence (P15145 whole entry): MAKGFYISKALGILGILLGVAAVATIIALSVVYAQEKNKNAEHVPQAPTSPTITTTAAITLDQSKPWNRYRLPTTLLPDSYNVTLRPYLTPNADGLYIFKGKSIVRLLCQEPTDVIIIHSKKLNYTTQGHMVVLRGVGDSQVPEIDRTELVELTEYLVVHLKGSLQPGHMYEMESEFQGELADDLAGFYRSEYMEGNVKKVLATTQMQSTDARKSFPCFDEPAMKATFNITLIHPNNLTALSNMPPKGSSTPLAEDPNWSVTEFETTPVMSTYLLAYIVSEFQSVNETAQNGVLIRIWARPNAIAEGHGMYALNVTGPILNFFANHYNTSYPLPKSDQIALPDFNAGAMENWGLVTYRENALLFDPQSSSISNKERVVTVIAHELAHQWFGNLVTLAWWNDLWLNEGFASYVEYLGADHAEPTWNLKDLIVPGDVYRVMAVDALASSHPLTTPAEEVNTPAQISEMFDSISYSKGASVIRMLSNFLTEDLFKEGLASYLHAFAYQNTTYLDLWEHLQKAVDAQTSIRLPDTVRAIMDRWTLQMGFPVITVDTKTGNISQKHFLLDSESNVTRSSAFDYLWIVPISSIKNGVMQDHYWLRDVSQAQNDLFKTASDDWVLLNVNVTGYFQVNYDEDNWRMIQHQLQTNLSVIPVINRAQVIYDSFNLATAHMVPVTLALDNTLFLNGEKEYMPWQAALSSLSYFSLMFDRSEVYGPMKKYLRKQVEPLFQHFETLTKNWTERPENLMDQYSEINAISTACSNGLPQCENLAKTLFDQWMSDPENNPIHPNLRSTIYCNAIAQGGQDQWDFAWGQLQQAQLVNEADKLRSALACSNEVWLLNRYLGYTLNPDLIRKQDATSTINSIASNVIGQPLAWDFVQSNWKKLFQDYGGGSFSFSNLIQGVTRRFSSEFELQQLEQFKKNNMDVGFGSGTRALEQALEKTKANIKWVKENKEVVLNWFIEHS

## C[C@@H]1NC(=O)[C@@H]2CCCN2C(=O)[C@H](CC(N)=O)NC(=O)[C@@H]2CSSC[C@H](N)C(=O)N[C@H]3CSSC[C@H](NC1=O)C(=O)N[C@@H]([C@@H](C)O)C(=O)NCC(=O)N[C@H](C(=O)N[C@@H](Cc1ccc(O)cc1)C(=O)O)CSSC[C@H](NC(=O)[C@H](Cc1ccc(O)cc1)NC(=O)[C@H](CCC(=O)O)NC3=O)C(=O)N2 [SEQ ID NO:3] (H-CCEYCCNPACTGCY-OH; disulfide 1-6, 2-10, 5-13; N-terminus and C-terminus assumed)
[1]; 8 mg/kg oral, read-out: AUCp.o.,(0-4h)
  AUC: ≤ 11.5 ng·h/mL
[1]; oral, 8 mg/kg, over 4 hours, read-out: bioavailability (F)
  bioavailability: ≤ 0.04%
Female CD rats
  Charcoal transit, of the small intestine (mean+SEM): 37.3+3.0%
aminopeptidase
  Cleavage of SEQ ID NO: 3 by proteolytic substance: not detectable
[2]
  cGMP activity in ligated loop fluid: no effect
  secretion (loop weight to length ratio): no effect
